Among the data in US20240067702A1, “LACTAM-MODIFIED P[…]” (DONGBAO PURPLE STAR (HANGZHOU) BIOPHARMACEUTICAL CO., LTD., priority 2020, published 2024) are EC50 and half-life values, retold here.

One data set addresses T1, GLP-1R (Homo sapiens, UniProt P43220).
T1 construct: host or cells: HEK293
Kind of data set: GLP-1R agonist activity test in vitro (cAMP assay). The class given is cell-based. The note with it: GLP-IR Agonist Activity EC50 (−) 1% HSA, HEK293 host cell; without 1% HSA. The procedure: (§1) The cell strains were constructed by Shanghai WuXi AppTec.
(§2) The test compound was serially diluted 4-fold with 10 points. The initial concentration was 30 μM, and the dilution was completed with Bravo.
(§3) 1) 100 nL of the compound was transferred to OptiPlate-384 plate using Echo.
(§4) 7) The GLP-1R/GIPR cell concentration was diluted to 2.0*10^5/mL with the experimental buffer.
(§5) 8) […] of the diluted cell suspension was transferred into the OptiPlate-384 plate.
(§6) 9) The diluted cell suspension was incubated at room temperature for 30 minutes.
(§7) 2) 10 μL of cAMP detection reagent was added.
(§8) 3) The OptiPlate-384 plate was covered with TopSeal-A film and incubated at room temperature for 60 minutes.
(§9) TopSeal-A was removed and read in EnVision.
In general terms: Cyclic AMP is a second messenger, typically raised through Gs and lowered through Gi signalling.

A further data set has as its target T2, GIPR (Homo sapiens, UniProt P48546).
T2 construct: host or cells: CHO
T2 sequence (P48546 22-466): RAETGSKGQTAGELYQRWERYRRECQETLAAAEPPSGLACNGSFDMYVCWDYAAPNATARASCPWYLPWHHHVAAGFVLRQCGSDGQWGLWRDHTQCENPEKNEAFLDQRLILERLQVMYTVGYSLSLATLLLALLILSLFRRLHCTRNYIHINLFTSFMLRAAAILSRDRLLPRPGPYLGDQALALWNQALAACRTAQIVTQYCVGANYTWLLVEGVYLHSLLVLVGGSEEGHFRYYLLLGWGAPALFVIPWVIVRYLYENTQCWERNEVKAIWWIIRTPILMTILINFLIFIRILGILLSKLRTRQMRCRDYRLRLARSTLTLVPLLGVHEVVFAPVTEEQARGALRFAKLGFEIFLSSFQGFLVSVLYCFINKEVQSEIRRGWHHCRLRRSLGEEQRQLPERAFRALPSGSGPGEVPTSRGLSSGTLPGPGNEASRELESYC
Put plainly: GIPR agonist activity test in vitro (cAMP assay). It counts as cell-based. The note with it: GIPR Agonist Activity EC50 (−) 1% HSA, CHO host cell; without 1% HSA. The procedure: as §1, §2, §3, §4, §5, §6, §7, §8, §9

A short description of data set [1]: Plasma stability (PLS) test, mouse plasma. The class given is in vitro ADME. Conditions: up to 120 min, read-out: PLS (H/M) T1/2; for half-life at 2 μM: pH 7.4, 37° C. As to the method:
To study the stability of test compounds in the plasma of normal mice.
1. Before the experiment, the coagulated frozen plasma was thawed in a water bath at 37° C. Plasma was centrifuged at 4000 rpm for 5 min. If there was blood clot, the blood clot was removed and the pH value was adjusted to 7.4±0.1.
2. Preparation of the test compound solution: 100 μM of the solution was prepared by dilution with DMSO.
3. 98 μL of blank control plasma was added to 2 μL of the test compound solution (100 μM), so that the final concentration of the mixed solution of the two reached 2 μM, and the mixed solution was placed in a 37° C. water bath for incubation.
4. At each time point (0, 10, 30, 60, and 120 min), 1(X) μL of H3PO4 solution and 800 μL of stop solution (200 ng/mL of tolbutamide and 200 ng/mL of labetalol in 100% methanol solution) were added to precipitate protein, and mixed thoroughly.
5. The samples were centrifuged at 4000 rpm for 20 min, and 1(X) μL of supernatant was taken from each well for LC-MS/MS analysis.

Each structure is given as a SMILES string. *1 amine or outer side, *2 acyl side, *3 side chain or, on linkers, in order; H or OH if unused. Where a SMILES comes first, the peptide text is derived from it. Bridges are numbered along the chain shown (N, C = ends). Side-chain parts run from the residue outwards. [ ]: non-standard residue; d: D form. The star is where a group is joined. C20 diacid = O=C(O)CCCCCCCCCCCCCCCCCCC(=O)*; γGlu = O=C(O)[C@H](CCC(=O)[*:2])N[*:1]; AEEA = NCCOCCOCC(=O)O; Aib = CC(C)(N)C(=O)O

T1 sequence (P43220 24-463): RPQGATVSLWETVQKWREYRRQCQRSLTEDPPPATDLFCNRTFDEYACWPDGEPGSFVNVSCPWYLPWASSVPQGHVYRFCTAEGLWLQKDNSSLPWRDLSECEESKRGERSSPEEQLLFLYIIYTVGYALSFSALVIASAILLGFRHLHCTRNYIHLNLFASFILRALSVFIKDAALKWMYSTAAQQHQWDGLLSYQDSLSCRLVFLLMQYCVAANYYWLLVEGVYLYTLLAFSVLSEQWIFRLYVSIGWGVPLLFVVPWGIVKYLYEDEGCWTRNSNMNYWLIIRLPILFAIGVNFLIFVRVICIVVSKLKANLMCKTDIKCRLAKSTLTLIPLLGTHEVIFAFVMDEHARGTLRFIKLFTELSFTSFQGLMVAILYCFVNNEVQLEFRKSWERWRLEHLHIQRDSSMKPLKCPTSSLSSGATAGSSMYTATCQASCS

Turning to `CC[C@H](C)[C@H](NC(=O)[C@H](CC(C)C)NC(=O)[C@H](Cc1c[nH]c2ccccc12)NC(=O)[C@@H]1CCC(=O)NCCCC[C@H](NC(=O)[C@H](CCC(N)=O)NC(=O)[C@H](C)NC(=O)[C@H](CCCCNC(=O)COCCOCCNC(=O)COCCOCCNC(=O)CC[C@H](NC(=O)CC[C@H](NC(=O)CCCCCCCCCCCCCCCCCCC(=O)O)C(=O)O)C(=O)O)NC(=O)[C@H](CCCCN)NC(=O)[C@H](CC(=O)O)NC(=O)[C@H](CC(C)C)NC(=O)C(C)(C)NC(=O)[C@@H](NC(=O)[C@H](CO)NC(=O)[C@H](Cc2ccc(O)cc2)NC(=O)[C@H](CC(=O)O)NC(=O)[C@H](CO)NC(=O)[C@@H](NC(=O)[C@H](Cc2ccccc2)NC(=O)[C@@H](NC(=O)CNC(=O)[C@H](CCC(=O)O)NC(=O)C(C)(C)NC(=O)[C@@H](N)Cc2ccc(O)cc2)[C@@H](C)O)[C@@H](C)O)[C@@H](C)CC)C(=O)N[C@@H](C)C(=O)N[C@@H](Cc2ccccc2)C(=O)N[C@@H](C(C)C)C(=O)N1)C(=O)N[C@@H](C)C(=O)NCC(=O)NCC(=O)N1CCC[C@H]1C(=O)N[C@@H](CO)C(=O)N[C@@H](CO)C(=O)NCC(=O)N[C@@H](C)C(=O)N1CCC[C@H]1C(=O)N1CCC[C@H]1C(=O)N1CCC[C@H]1C(=O)N[C@@H](CO)C(N)=O` [WX-002] (H-Y[Aib]EGTFTSDYSI[Aib]LDKK([AEEA-AEEA-γGlu-γGlu-C20 diacid])AQKAFVEWLIAGGPSSGAPPPS-NH2; lactam 20-24), the EC50 (usually the concentration at which the effect is half-maximal) at GLP-1R turned out to be 0.052 nM; on GIPR, 0.29 nM. In addition, the half-life in data set [1] (2 μM, 37° C.) is more than 4.82 h.
Regarding `CC[C@H](C)[C@H](NC(=O)[C@H](CC(C)C)NC(=O)[C@H](Cc1c[nH]c2ccccc12)NC(=O)[C@@H]1CCC(=O)NCCCC[C@H](NC(=O)[C@H](CCC(N)=O)NC(=O)[C@H](C)NC(=O)[C@H](CCCCNC(=O)COCCOCCNC(=O)COCCOCCNC(=O)CC[C@H](NC(=O)CCCCCCCCCCCCCCCCCCC(=O)O)C(=O)O)NC(=O)[C@H](CCCCN)NC(=O)[C@H](CC(=O)O)NC(=O)[C@H](CC(C)C)NC(=O)C(C)(C)NC(=O)[C@@H](NC(=O)[C@H](CO)NC(=O)[C@H](Cc2ccc(O)cc2)NC(=O)[C@H](CC(=O)O)NC(=O)[C@H](CO)NC(=O)[C@@H](NC(=O)[C@H](Cc2ccccc2)NC(=O)[C@@H](NC(=O)CNC(=O)[C@H](CCC(=O)O)NC(=O)C(C)(C)NC(=O)[C@@H](N)Cc2ccc(O)cc2)[C@@H](C)O)[C@@H](C)O)[C@@H](C)CC)C(=O)N[C@@H](C)C(=O)N[C@@H](Cc2ccccc2)C(=O)N[C@@H]([C@@H](C)CC)C(=O)N1)C(=O)N[C@@H](C)C(=O)NCC(=O)NCC(=O)N1CCC[C@H]1C(=O)N[C@@H](CO)C(=O)N[C@@H](CO)C(=O)NCC(=O)N[C@@H](C)C(=O)N1CCC[C@H]1C(=O)N1CCC[C@H]1C(=O)N1CCC[C@H]1C(=O)N[C@@H](CO)C(N)=O` [WX-006] (H-Y[Aib]EGTFTSDYSI[Aib]LDKK([AEEA-AEEA-γGlu-C20 diacid])AQKAFIEWLIAGGPSSGAPPPS-NH2; lactam 20-24), the results for the EC50 at GLP-1R and on GIPR were 0.051 nM and 0.45 nM, respectively. Further, in data set [1], the half-life at 2 μM was more than 4.82 h.
For `CC[C@H](C)[C@H](NC(=O)[C@H](CC(C)C)NC(=O)[C@H](Cc1c[nH]c2ccccc12)NC(=O)[C@@H]1CCC(=O)NCCCC[C@H](NC(=O)[C@H](CCC(N)=O)NC(=O)[C@H](C)NC(=O)[C@H](CCCCNC(=O)COCCOCCNC(=O)COCCOCCNC(=O)CC[C@H](NC(=O)CCCCCCCCCCCCCCCCCCC(=O)O)C(=O)O)NC(=O)[C@H](CCCCN)NC(=O)[C@H](CC(=O)O)NC(=O)[C@H](CC(C)C)NC(=O)C(C)(C)NC(=O)[C@@H](NC(=O)[C@H](CO)NC(=O)[C@H](Cc2ccc(O)cc2)NC(=O)[C@H](CC(=O)O)NC(=O)[C@H](CO)NC(=O)[C@@H](NC(=O)[C@H](Cc2ccccc2)NC(=O)[C@@H](NC(=O)CNC(=O)[C@H](CCC(=O)O)NC(=O)C(C)(C)NC(=O)[C@@H](N)Cc2ccc(O)cc2)[C@@H](C)O)[C@@H](C)O)[C@@H](C)CC)C(=O)N[C@@H](CCC(=O)O)C(=O)N[C@@H](Cc2ccccc2)C(=O)N[C@@H](C(C)C)C(=O)N1)C(=O)N[C@@H](C)C(=O)NCC(=O)NCC(=O)N1CCC[C@H]1C(=O)N[C@@H](CO)C(=O)N[C@@H](CO)C(=O)NCC(=O)N[C@@H](C)C(=O)N1CCC[C@H]1C(=O)N1CCC[C@H]1C(=O)N1CCC[C@H]1C(=O)N[C@@H](CO)C(N)=O` [WX-005] (H-Y[Aib]EGTFTSDYSI[Aib]LDKK([AEEA-AEEA-γGlu-C20 diacid])AQKEFVEWLIAGGPSSGAPPPS-NH2; lactam 20-24), the EC50 at GLP-1R amounted to 0.042 nM; at GIPR, 0.22 nM. In addition, the half-life at 2 μM in data set [1] was more than 4.82 h.
